Test results published in PubChem BioAssay AID328 (DTP/NCI, 2004).
Where “and” joins values, the source holds several entries; their conditions need not be identical. Equal entries are not always repeated. Inconclusive results and toxic doses are left out. Rule for the calls: active = survival T/C of 150% or more; inactive = T/C below 125% in these data.

System: BDF1 mice, P388 leukemia ip, median survival T/C
Assay: NCI In Vivo Anticancer Drug Screen. Data for tumor model P388 Leukemia (intraperitoneal) in B6D2F1 (BDF1) mice
Conditions: endpoint: median survival time, higher = longer survival
How it was run: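 Compound-treated tumour-bearing mice were compared with vehicle-treated controls. Survival was recorded, and the value is the treated-group measurement divided by the control-group measurement (T/C).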

[1] = dose: 12.5 mg/kg/injection, schedule: Q04DX003 (ip), vehicle: water
[2] = dose: 25.0 mg/kg/injection, schedule: Q04DX003 (ip), vehicle: water
[3] = dose: 50.0 mg/kg/injection, schedule: Q04DX003 (ip), vehicle: water
[4] = dose: 50.0 mg/kg/injection, schedule: Q01DX009 (ip), vehicle: saline
[5] = dose: 100.0 mg/kg/injection, schedule: Q01DX009 (ip), vehicle: saline
[6] = dose: 200.0 mg/kg/injection, schedule: Q01DX009 (ip), vehicle: saline
[7] = dose: 50.0 mg/kg/injection, schedule: Q01DX009 (ip), vehicle: saline with Tween-80
[8] = dose: 100.0 mg/kg/injection, schedule: Q01DX009 (ip), vehicle: saline with Tween-80
[9] = dose: 200.0 mg/kg/injection, schedule: Q01DX009 (ip), vehicle: saline with Tween-80
[10] = dose: 25.0 mg/kg/injection, schedule: Q04DX003 (ip), vehicle: saline
[11] = dose: 50.0 mg/kg/injection, schedule: Q04DX003 (ip), vehicle: saline

Measured: T/C

CCCCc1ccc(NC(=O)N(CCCl)N=O)cc1
inactive: dose: 32.0 mg/kg/injection, schedule: Q01DX009 (ip), vehicle: Klucel (hydroxypropylcellulose) (HPC) 100 % of control
active: dose: 2.5 mg/kg/injection, schedule: Q01DX009 (ip), vehicle: Klucel (hydroxypropylcellulose) (HPC) 160 % of control | dose: 2.5 mg/kg/injection, schedule: Q04DX003 (ip), vehicle: Klucel (hydroxypropylcellulose) (HPC) 175 % of control | dose: 4.0 mg/kg/injection, schedule: Q01DX009 (ip), vehicle: Klucel (hydroxypropylcellulose) (HPC) 180 % of control | dose: 4.0 mg/kg/injection, schedule: Q04DX003 (ip), vehicle: Klucel (hydroxypropylcellulose) (HPC) 191 % of control | dose: 8.0 mg/kg/injection, schedule: Q01DX009 (ip), vehicle: Klucel (hydroxypropylcellulose) (HPC) 230 % of control | dose: 8.0 mg/kg/injection, schedule: Q04DX003 (ip), vehicle: Klucel (hydroxypropylcellulose) (HPC) 208 % of control | dose: 10.0 mg/kg/injection, schedule: Q04DX003 (ip), vehicle: other 172 % of control | dose: 16.0 mg/kg/injection, schedule: Q01DX009 (ip), vehicle: Klucel (hydroxypropylcellulose) (HPC) 225 % of control | dose: 16.0 mg/kg/injection, schedule: Q04DX003 (ip), vehicle: Klucel (hydroxypropylcellulose) (HPC) 233 % of control | dose: 20.0 mg/kg/injection, schedule: Q04DX003 (ip), vehicle: other 172 % of control | dose: 66.0 mg/kg/injection, schedule: Q04DX003 (ip), vehicle: other 222 % of control | dose: 99.0 mg/kg/injection, schedule: Q04DX003 (ip), vehicle: other 186 % of control | dose: 150.0 mg/kg/injection, schedule: Q04DX003 (ip), vehicle: other 254 % of control | dose: 225.0 mg/kg/injection, schedule: Q04DX003 (ip), vehicle: other 245 % of control

CN=S(=O)(OCCN(C)CCOS(=O)(=NC)c1ccc(C)cc1)c1ccc(C)cc1 (stereo not given)
inactive: dose: 50.0 mg/kg/injection, schedule: Q01DX009 (ip), vehicle: saline + alcohol 112 % of control | dose: 100.0 mg/kg/injection, schedule: Q01DX009 (ip), vehicle: saline + alcohol 103 % of control | dose: 200.0 mg/kg/injection, schedule: Q01DX009 (ip), vehicle: saline + alcohol 116 % of control

CC(=O)N/N=C(/C)C(=O)O
inactive: dose: 12.5 mg/kg/injection, schedule: Q01DX009 (ip), vehicle: water 93 % of control and 102 % of control and 114 % of control | [1] 95 % of control | [2] 100 % of control | [3] 100 % of control

O=C(O)CNC1CSSC1
inactive: dose: 1.56 mg/kg/injection, schedule: Q04DX003 (ip), vehicle: water 97 % of control | dose: 3.12 mg/kg/injection, schedule: Q01DX009 (ip), vehicle: water 111 % of control | dose: 3.12 mg/kg/injection, schedule: Q04DX003 (ip), vehicle: water 88 % of control | dose: 6.25 mg/kg/injection, schedule: Q01DX009 (ip), vehicle: water 101 % of control | dose: 6.25 mg/kg/injection, schedule: Q04DX003 (ip), vehicle: water 93 % of control | [1] 88 % of control | dose: 25.0 mg/kg/injection, schedule: Q01DX009 (ip), vehicle: water 109 % of control | [2] 94 % of control | dose: 50.0 mg/kg/injection, schedule: Q01DX009 (ip), vehicle: water 108 % of control | [3] 86 % of control | dose: 100.0 mg/kg/injection, schedule: Q01DX009 (ip), vehicle: water 91 % of control

CCCCNC(C)(C)C(SS)c1ccc(C(F)(F)F)cc1 (stereo not given)
inactive: dose: 6.25 mg/kg/injection, schedule: Q04DX003 (ip), vehicle: other 100 % of control | dose: 12.5 mg/kg/injection, schedule: Q04DX003 (ip), vehicle: other 105 % of control | dose: 25.0 mg/kg/injection, schedule: Q04DX003 (ip), vehicle: other 110 % of control

O=S(=O)(OC1=CCCCC1)C(F)(F)F
inactive: [4] 104 % of control | [5] 107 % of control | [6] 109 % of control

CC(N)Cc1c(Cl)cc(N(C)C)cc1Cl (stereo not given)
inactive: dose: 3.13 mg/kg/injection, schedule: Q01DX009 (ip), vehicle: saline 100 % of control | dose: 6.25 mg/kg/injection, schedule: Q01DX009 (ip), vehicle: saline 100 % of control | dose: 12.5 mg/kg/injection, schedule: Q01DX009 (ip), vehicle: saline 102 % of control

CC(=O)OCC1OC(N=[N+]=[N-])C(OC(C)=O)C(OC(C)=O)C1OC(C)=O (stereo not given)
inactive: [7] 93 % of control | [8] 108 % of control | [9] 99 % of control

COc1ccc2nc3cc(Cl)ccc3c(NCCO)c2c1
inactive: dose: 37.5 mg/kg/injection, schedule: Q01DX010 (ip), vehicle: saline 100 % of control | dose: 75.0 mg/kg/injection, schedule: Q01DX010 (ip), vehicle: saline 100 % of control | dose: 150.0 mg/kg/injection, schedule: Q01DX010 (ip), vehicle: saline 100 % of control

CCCCCCCCCCC(C)c1ccc(S(=O)(=O)O)cc1 (stereo not given)
inactive: dose: 12.5 mg/kg/injection, schedule: Q01DX009 (ip), vehicle: saline with Tween-80 103 % of control | dose: 25.0 mg/kg/injection, schedule: Q01DX009 (ip), vehicle: saline with Tween-80 110 % of control | dose: 33.0 mg/kg/injection, schedule: Q01DX009 (ip), vehicle: saline with Tween-80 120 % of control | [7] 115 % of control and 116 % of control and 118 % of control | dose: 75.0 mg/kg/injection, schedule: Q01DX009 (ip), vehicle: saline with Tween-80 110 % of control | [8] 119 % of control

O=C(C[N+]12CN3CN(CN(C3)C1)C2)c1ccc(Cl)cc1
inactive: [10] 100 % of control | dose: 44.0 mg/kg/injection, schedule: Q04DX003 (ip), vehicle: saline sonified 104 % of control | [7] 107 % of control | [11] 110 % of control | dose: 66.0 mg/kg/injection, schedule: Q04DX003 (ip), vehicle: saline sonified 118 % of control | [8] 119 % of control | [9] 119 % of control

O=C1OI(OI2OC(=O)c3ccccc32)c2ccccc21 (tested in a mixture with another compound)
inactive: dose: 50.0 mg/kg/injection, schedule: Q01DX001 (ip), vehicle: saline with Tween-80 101 % of control | dose: 100.0 mg/kg/injection, schedule: Q01DX001 (ip), vehicle: saline with Tween-80 101 % of control and 103 % of control | dose: 200.0 mg/kg/injection, schedule: Q01DX001 (ip), vehicle: saline with Tween-80 108 % of control and 120 % of control | dose: 400.0 mg/kg/injection, schedule: Q01DX001 (ip), vehicle: saline with Tween-80 117 % of control and 124 % of control

C=CCn1c2ccccc2c2cc3cnccc3c(C)c21
inactive: dose: 50.0 mg/kg/injection, schedule: Q04DX003 (ip), vehicle: saline sonified 95 % of control | dose: 100.0 mg/kg/injection, schedule: Q04DX003 (ip), vehicle: saline sonified 90 % of control | dose: 200.0 mg/kg/injection, schedule: Q04DX003 (ip), vehicle: saline sonified 95 % of control

C=CC12COC(=O)C(=C)C1C1OC(=O)C(=C)C1C(O)C2 (stereo not given)
inactive: dose: 1.0 mg/kg/injection, schedule: Q01DX009 (ip), vehicle: water 118 % of control | dose: 2.0 mg/kg/injection, schedule: Q01DX009 (ip), vehicle: water 109 % of control | dose: 4.6 mg/kg/injection, schedule: Q01DX010 (ip), vehicle: carboxymethylcellulose (CMC) 115 % of control | dose: 8.0 mg/kg/injection, schedule: Q01DX009 (ip), vehicle: water 113 % of control | dose: 10.0 mg/kg/injection, schedule: Q01DX009 (ip), vehicle: saline + alcohol 122 % of control | dose: 125.0 micrograms/kg/injection, schedule: Q01DX010 (ip), vehicle: carboxymethylcellulose (CMC) 95 % of control | dose: 250.0 micrograms/kg/injection, schedule: Q01DX010 (ip), vehicle: carboxymethylcellulose (CMC) 95 % of control | dose: 500.0 micrograms/kg/injection, schedule: Q01DX010 (ip), vehicle: carboxymethylcellulose (CMC) 100 % of control | dose: 1000.0 micrograms/kg/injection, schedule: Q01DX010 (ip), vehicle: carboxymethylcellulose (CMC) 104 % of control | dose: 2000.0 micrograms/kg/injection, schedule: Q01DX010 (ip), vehicle: carboxymethylcellulose (CMC) 104 % of control | dose: 4000.0 micrograms/kg/injection, schedule: Q01DX010 (ip), vehicle: carboxymethylcellulose (CMC) 100 % of control

CC(C(=O)O)[Se](=O)O (stereo not given)
inactive: dose: 12.5 mg/kg/injection, schedule: Q04DX003 (ip), vehicle: saline 101 % of control | [10] 101 % of control | [11] 100 % of control

COc1ccc2c(c1)C1(C)CCN(C)CC(C1)C2O (stereo not given)
inactive: [4] 96 % of control | [5] 89 % of control | [6] 92 % of control
